Assay results taken from patent US7312224B2, “Pyrimidine derivatives” (Merck Patent GmbH, priority 2001, dated 2007).
Structures can show the parent of a compound that is named as a salt.

How the values were obtained:
[1] = biological target: cGMP phosphodiesterase (PDE V) (Homo sapiens, UniProt O76074); experiment: Affinity to PDE V (IC50, inhibition of enzyme activity); assay type: biochemical; details: concentration of the inhibitor needed to achieve 50% inhibition of the enzyme activity
Method: The biological activity of the compounds of the formula I can be determined by methods as described, for example, in WO 93/06104.
The affinity of the compounds according to the invention for cGMP and cAMP phosphodiesterase is determined by measuring their IC50 values (concentration of the inhibitor needed to achieve 50% inhibition of the enzyme activity).
The determinations can be carried out using enzymes isolated by known methods (for example W. J. Thompson et al., Biochem. 1971, 10, 311). The experiments can be carried out using a modified batch method of W. J. Thompson and M. M. Appleman (Biochem. 1979, 18 5228).

SMILES	melting point	IC50 [1]
COc1ccc(CNc2nc(-c3ccc(C(=O)O)cc3)nc3c2c2c(n3C(C)c3ccccc3)CCCC2)cc1Cl (stereo not shown) (as salt: potassium) [Example 1, 4-[4-(3-chloro-4-methoxybenzylamino)-9-(1-phenylethyl)-6,7,8,9-tetrahydro-5H-1,3,9-triazafluoren-2-yl]benzoic acid]	179 °C	–
O=C(O)c1ccc(-c2nc(NCc3ccc4c(c3)OCO4)c3c4c(oc3n2)CCCC4)cc1 (as salt: salt) [Example 2, 4-[4-(3,4-methylenedioxybenzylamino)-5,6,7,8-tetrahydrobenzo[4,5]furo[2,3-d]pyrimidin-2-yl]benzoic acid]	205 °C	–
COc1ccc(CNc2nc(CCCC(=O)O)nc3oc4c(c23)CCCC4)cc1Cl (as salt: salt) [Example 3, 4-[4-(3-chloro-4-methoxybenzylamino)-5,6,7,8-tetrahydrobenzo[4,5]furo[2,3-d]pyrimidin-2-yl]butyric acid]	205 °C	–
COc1ccc(CNc2nc(-c3ccc(C(=O)O)cc3)nc3c2c2c(n3C(C)c3ccccc3)CCCC2)cc1Cl (stereo not shown) [Example 1, 4-[4-(3-chloro-4-methoxybenzylamino)-9-(1-phenylethyl)-6,7,8,9-tetrahydro-5H-1,3,9-triazafluoren-2-yl]benzoic acid]	–	300 nM

Continued, values first:

melting point	IC50 [1]	SMILES
> 250 °C	–	CCn1c2ccccc2c2c(NCc3ccc4c(c3)OCO4)nc(-c3ccc(C(=O)O)cc3)nc21 (as salt: sodium) [Example 7, 4-[4-(3,4-methylenedioxybenzylamino)-9-ethyl-9H-1,3,9-triazafluoren-2-yl]benzoic acid]
> 250 °C	–	COc1ccc(CNc2nc(-c3ccc(C(=O)O)cc3)nc3c2c2ccccc2n3C)cc1Cl (as salt: sodium) [Example 8, 4-[4-(3-chloro-4-methoxybenzylamino)-9-methyl-9H-1,3,9-triazafluoren-2-yl]benzoic acid]
233 to 235 °C	–	COc1ccc(CNc2nc(CN3CCC(C(=O)O)CC3)nc3oc4c(c23)CCCC4)cc1Cl [Example 4, 1-[4-(3-chloro-4-methoxybenzylamino)-5,6,7,8-tetrahydrobenzo[4,5]furo[2,3-d]pyrimidin-2-ylmethyl]piperidine-4-carboxylic acid]
